Measurements: ChEMBL document CHEMBL5441456, “ASAP - SARS-CoV-2 nsp3 macrodomain dose response” (2024)
“And” between values parts separate entries of the source, which are not always exact repeats. Equal entries are not always repeated.

Target: Replicase polyprotein 1ab (Severe acute respiratory syndrome coronavirus 2, UniProt P0DTD1)
Assay: Functional biochemical assay to identify treatments for viral infectious disease that targets SARS-COV-2 nsp3 macrodomain, whereby the mechanism of action displaces an ADP-Ribose modified peptide from the binding site. Utilizing a time-resolved fluorescence method to measure binding by reading the emitted fluorescence intensity in two wavelengths.

Row | SMILES | IC50
1 | CC(C)[C@H](Nc1ncnc2[nH]c(-c3cnn(C)c3C#N)cc12)c1ccc2c(c1)S(=O)(=O)CCC2 | 0.018 µM and 0.015 µM and 0.013 µM
2 | O=C(O)C[C@@H](NC(=O)c1ccc(NC(=O)NC2CC2)cc1)c1cccc(F)c1 | 27.3 µM and 32.5 µM
3 | Cc1ccc2snc(C(=O)N(C)CC[C@@H](Nc3ncnc4[nH]ccc34)C(C)C)c2c1 | > 99.5 µM
4 | COCCC1(NC(=O)c2cc3c(N[C@@H](c4ccc5c(c4)OCCO5)C(C)C)ncnc3[nH]2)CC1 | 2.84 µM and 4.42 µM
5 | CCn1ncc(-c2cc3c(N[C@@H](c4ccc5c(c4)OCCO5)C(C)C)ncnc3[nH]2)c1C | 0.905 µM and 1.06 µM
6 | CC(C)C[C@@H](Nc1ncnc2[nH]ccc12)C(=O)O | > 99.5 µM
7 | CNC(=O)c1ccc([C@@H](CC(=O)O)NC(=O)c2ncnc3[nH]ccc23)cc1 | 9.07 µM and 13.4 µM
8 | CCNC(=O)c1cc2c(N[C@@H](c3ccc4c(c3)S(=O)(=O)CCC4)C(C)C)ncnc2[nH]1 | 0.056 µM and 0.1 µM and 0.02 µM and 0.034 µM and 0.019 µM and 0.033 µM and 0.053 µM and 0.032 µM and 0.042 µM
9 | CC(C)[C@@H](Nc1ncnc2[nH]c(-c3cccc(-n4cnnn4)c3)cc12)c1ccc2c(c1)S(=O)(=O)CCC2 | 0.241 µM
10 | CN1CC[C@@H]1[C@@H](Nc1ncnc2[nH]ccc12)c1ccc2c(c1)OCCO2 | > 99.5 µM and 66 µM
11 | CCn1nccc1-c1cc2c(N[C@@H](c3ccc4c(c3)OCCO4)C(C)C)ncnc2[nH]1 | 0.892 µM and 1.42 µM and 1.29 µM
12 | CC(C)[C@@H](Nc1ncnc2[nH]c(-c3ccc(=O)n(C)c3)cc12)c1ccc2c(c1)S(=O)(=O)CCC2 | 0.05 µM and 0.046 µM and 0.04 µM and 0.048 µM and 0.078 µM
13 | O=C(O)C[C@@H](NC(=O)c1cc2[nH]ccc2cn1)c1ccc(Br)cc1 | 6.82 µM and 7.54 µM
14 | CC(C)[C@@H](Nc1ncnc2ccccc12)c1ccc2c(c1)OCCO2 | 58.3 µM and 59.9 µM
15 | CC(C)[C@@H](Nc1ncnc(N2CCCC2)n1)c1ccc2c(c1)S(=O)(=O)CCC2 | > 99.5 µM
16 | CC(C)[C@@H](Nc1ncnc2[nH]ccc12)c1ccc2c(n1)S(=O)(=O)CCC2 | 1.11 µM and 0.784 µM
17 | CC(=O)N1[C@@H]2CC[C@H]1c1c(ncnc1N[C@@H](c1ccc3c(c1)S(=O)(=O)CCC3)C(C)C)C2 | > 99.5 µM
18 | Cc1cc(NCc2cnc3c(c2)NC(=O)CO3)cnc1C | > 124 µM
19 | CC(C)[C@@H](Oc1ncnc2[nH]ccc12)c1ccc2c(c1)OCCO2 | > 99.5 µM
20 | Cc1[nH]c2ncnc(NC(=O)c3cc(Cl)ccn3)c2c1C | > 99.5 µM
21 | COc1ccc([C@@H](CC(=O)O)NC(=O)c2c[nH]c3c(NC(=O)NC4CC4)cccc23)cc1 | > 99.5 µM
22 | CNc1cc(N[C@@H](c2ccc3c(c2)S(=O)(=O)CCC3)C(C)C)ncn1 | 6.08 µM

Row | SMILES | IC50
23 | CC(C)[C@@H](Nc1ncnc2[nH]c(C(=O)NCc3ncccn3)cc12)c1ccc2c(c1)OCCO2 | 2.94 µM and 5.87 µM
24 | COc1nc(NC(=O)c2cc3c(N[C@@H](c4ccc5c(c4)OCCO5)C(C)C)ncnc3[nH]2)n[nH]1 | 47.2 µM
25 | c1nc(N[C@@H](C2CC2)[C@@H]2CCCOC2)c2cc[nH]c2n1 | > 99.5 µM
26 | COc1ccc([C@@H](NC(=O)c2ncnc3[nH]ccc23)C(C)(C)c2nnn[nH]2)cc1 | 1.69 µM and 3.91 µM
27 | Cc1[nH]c2ncnc(NC(=O)Cc3ccc(Cl)nc3)c2c1C | > 99.5 µM
28 | CNCc1cc(-c2cc3c(N[C@H](c4ccc5c(c4)S(=O)(=O)CCO5)C(C)C)ncnc3[nH]2)co1 | 0.057 µM
29 | CC(C)[C@@H](Nc1nc(C(F)F)nc2ccccc12)c1ccc2c(c1)OCCO2 | > 99.5 µM
30 | O=C(c1cnc[nH]1)N1CCC(c2ccn3ncc(C(=O)N4CCCCC4)c3c2)CC1 | > 99.5 µM
31 | CC(C)[C@@H](Nc1ncnc2[nH]c(-c3cn(C)nc3C3CC3)cc12)c1ccc2c(c1)OCCO2 | 1.19 µM
32 | CC(C)[C@@H](Nc1ncnc2[nH]c(-c3cnn(CC(N)=O)c3)cc12)c1ccc2c(n1)OCCO2 | 0.242 µM and 0.068 µM and 0.134 µM
33 | O=C(Nc1ccccc1)Nc1ccc(C(=O)NC2c3cccc(O)c3CC2C(=O)O)cc1 (stereo unspecified) | 1.02 µM and 1.06 µM and 650 nM and 440 nM (3×) and 535 nM and 555 nM and 628 nM and 598 nM and 632 nM (2×) and 644 nM and 653 nM (2×) and 470 nM and 462 nM and 430 nM and 474 nM and 540 nM and 599 nM and 592 nM and 435 nM and 316 nM and 338 nM and 701 nM and 439 nM and 411 nM and 374 nM (2×) and 353 nM (2×) and 447 nM and 847 nM and 925 nM and 461 nM and 794 nM and 731 nM and 432 nM and 1.1 µM and 317 nM and 406 nM and 649 nM and 516 nM and 384 nM and 402 nM and 289 nM and 506 nM and 262 nM and 224 nM
34 | O=C(NCc1ccc(F)cn1)c1ncnc2[nH]ccc12 | > 99.5 µM
35 | COc1cc(Nc2ccc([C@@H](CC(=O)O)NC(=O)c3ncnc4[nH]ccc34)cc2)n[nH]1 | 7.57 µM and 7.27 µM
36 | CNc1c[nH]c2ncnc(N[C@@H](c3ccc4c(c3)OCCO4)C(C)C)c12 | 28.9 µM
37 | O=C(O)[C@@H](Nc1ncnc2[nH]ccc12)c1ccc2c(c1)OCCO2 | 9.41 µM and 7.95 µM
38 | CC(C)[C@@H](Nc1ncnc2[nH]ccc12)c1ccc2c(c1)NC(=O)[C@@H](C)O2 | 2.69 µM and 2.9 µM
39 | Cc1[nH]c2ncnc(NC(=O)c3ncccc3Cl)c2c1C | 49.3 µM and 60.3 µM
40 | CC(C)[C@@H](Nc1ncnc2[nH]ccc12)c1ccc2cn[nH]c2c1 | > 99.5 µM
41 | O=C(O)[C@@H]1C[C@@H]2OCC[C@@H]2N1c1ncnc2[nH]ccc12 | > 99.5 µM
42 | CC(C)[C@@H](Nc1ncnc2[nH]c([C@@H]3CCCNC3)cc12)c1ccc2c(c1)OCCO2 | 3.49 µM and 5.54 µM and 5.19 µM
43 | O[C@H]1C[C@](CNc2ncnc3[nH]ccc23)(c2ccccc2)C1 | > 124 µM
44 | CC(C)(NC(=O)c1ncnc2[nH]ccc12)c1cc(C(=O)O)[nH]n1 | > 99.5 µM

Row | SMILES | IC50
45 | COc1ccc([C@@H]2CCN(c3ncnc4[nH]ccc34)C2)cc1 | > 99.5 µM
46 | CC(C)[C@@H]1C[C@H](Nc2[nH]cnc3nccc2-3)CCO1 | > 99.5 µM
47 | O=C(Nc1ncnc2c(C(=O)N[C@@H](c3cccs3)C3CCCC3)csc12)NC1CC1 | > 99.5 µM
48 | C[C@@H](C(=O)O)[C@@H](NC(=O)c1ncnc2[nH]ccc12)c1ccc(Br)cc1 | 0.808 µM and 0.532 µM
49 | CC(C)[C@@H](Nc1ncnc2[nH]c(C3=CCS(=O)(=O)C3)cc12)c1ccc2c(c1)S(=O)(=O)CCC2 | 0.107 µM and 0.171 µM and 0.117 µM
50 | O=C(OCc1cccc(Cl)n1)c1ncnc2[nH]ccc12 | > 124 µM
51 | CC(C)[C@@H](NCc1cccc2[nH]ccc12)c1ccc2c(c1)OCCO2 | > 99.5 µM
52 | Cc1nc2nc[nH]c(NC(=O)c3ccc(NC(=O)NC4CC4)nc3)c-2c1C | > 99.5 µM
53 | CC(C)[C@@H](Nc1cc(-n2ccnn2)ncn1)c1ccc2c(c1)S(=O)(=O)CCC2 | > 99.5 µM
54 | Cc1cc(-c2cc3c(N[C@@H](c4ccc5c(c4)OCCO5)C(C)C)ncnc3[nH]2)n(C)n1 | 1.07 µM and 1.02 µM
55 | O=C(N[C@@H]1CCC[C@@H]1C(=O)O)c1cnn2ccc(C3CCN(C(=O)c4ccc(Cl)c(Cl)c4)CC3)cc12 | 38 µM and 40.8 µM
56 | COc1ccc([C@@](C)(CC(=O)O)NC(=O)c2ncnc3[nH]ccc23)cc1 | 19.3 µM and 18.2 µM
57 | CC(C)[C@@H](Cc1ccc(F)cc1)NC(=O)c1ncnc2[nH]ccc12 | > 99.5 µM
58 | O=C(OCc1ncccc1Cl)c1ncnc2[nH]ccc12 | > 99.5 µM
59 | CC(C)[C@@H](Nc1ncnc2[nH]c(C(=O)NC3CCN(C)CC3)cc12)c1ccc2c(c1)S(=O)(=O)CCC2 | 0.208 µM
60 | CC(C)[C@H](Nc1ncnc(-n2cccn2)n1)c1ccc2c(c1)S(=O)(=O)CCC2 | > 99.5 µM
61 | O=C(O)C[C@@H](NC(=O)c1c[nH]c2ncccc12)c1ccc(Br)cc1 | 27.4 µM and 29 µM
62 | N#CC[C@@H](NC(=O)c1ncnc2[nH]ccc12)c1ccc(Br)cc1 | > 99.5 µM
63 | CC(C)[C@@H](Nc1ncnc2[nH]c(C(=O)NCC3(CO)CC3)cc12)c1ccc2c(c1)OCCO2 | 0.802 µM and 2.14 µM
64 | Cc1[nH]c2ncnc(NC(=O)c3ccc(-n4cccn4)nc3)c2c1C | > 99.5 µM
65 | CC(C)[C@@H](Nc1ncnc2[nH]c(-c3ccc4[nH]ncc4c3)cc12)c1ccc2c(c1)OCCO2 | 20.5 µM and 19.7 µM
66 | Cc1nnc(Nc2ccc(C(=O)N[C@H]3c4cccc(O)c4C[C@@H]3C(=O)O)cc2)o1 | > 99.5 µM
